Test results published in patent publication US7750165B2, “Metaxalone polymorphs” (Fresenius Kabi Oncology Limited, priority 2005, dated 2010).
Values joined by “and” are separate entries in the source; they are usually repeats but may differ in a detail not shown here. Equal values may be shown once. Read-outs that look alike come from different tables or passages of the source.

Experiment: Bioavailability and pharmacokinetic study of crystalline Forms A and B of metaxalone, oral suspension, plasma by HPLC
Assay type: in vivo, female wistar rat
Set-up: AUCin / AUCt / AUCt Mean / AUCin Mean: unit not given here
Experimental: A study was undertaken to compare the bioavailability and pharmacokinetic profile of the two crystalline Forms A and B of metaxalone in female wistar rat under fasting condition. A suspension of metaxalone form A and Form B having a concentration of 15.0 mg/ml was prepared using 0.1% Tween-80 in 0.25% carboxy methyl cellulose (CMC). The formulation was used for dosing as such without any further dilution.
Twelve rats were taken, out of which six rats were administered form A crystals of Metaxalone and other six rats were adminstered form B crystals of Metaxalone, in different injection volumes based on body weight, resulting in dose of 150 mg/kg. A total thirteen (0.6 ml) blood samples were collected from each rat into prelabeled tubes containing EDTA solution, by retro-orbital bleeding under mild ether anesthesia. The blood samples were withdrawn at time points of 0 (prior to dosing), 15, 30 mins, 1, 1.5, 2.0, 4.0, 6.0, 8.0, 10.0, 12.0, 24 and 48 hrs post administration. The samples were centrifuged at 4000 rpm for 10 mins at room temperature. Seperated plasma samples were transferred into prelabeled tubes and stored upright in cyrobox. These cyroboxes were then transfered into a deep freezer maintained at −20° C. for the final storage until the completion of analysis.
HPLC system of Shimadzu LC—2010CHT series equipped with shimadzu UV-VIS detector, analytical column YMC Pack ODS C-18, 5 μm, (150×4.6 mm) and a data acquisition system (LC solution software) were used for the quantitative determination of metaxalone in rat plasma.
The results were plotted using the conventional AUC method to calculate pharmacokinetic ters (Cmax, Tmax and AUC (area under the curve, a measure of total bioavailability). The pharmacokinetic results for the crystalline form A and B are summarized in Table-V

[1] = Mean of N=6 rats, female wistar rat, oral 150 mg/kg, 150 mg/kg
[2] = female wistar rats, fasting, oral 150 mg/kg, plasma, Mean ± SD (second Table IV), listed as Metaxalone- Form B, 150 mg/kg
[3] = female wistar rats, fasting, oral 150 mg/kg, plasma, Mean ± SD, 150 mg/kg
[4] = female wistar rats, fasting, oral 150 mg/kg, plasma, Mean ± SD, listed as Metaxalone- Form B, 150 mg/kg
[5] = female wistar rats, oral 150 mg/kg
[6] = individual rats 1-6, female wistar rat, oral 150 mg/kg, 150 mg/kg
[7] = individual rats 1-6, female wistar rat, oral 150 mg/kg, 150 mg/kg, in h
[8] = individual rats 1-6, female wistar rat, oral 150 mg/kg, 150 mg/kg, in µg/mL
[9] = Form A relative to Form B, per rat number 1-6, oral 150 mg/kg, 150 mg/kg
[10] = female wistar rats, fasting, oral 150 mg/kg, plasma, Mean ± SD, listed as Metaxalone- Form A, 150 mg/kg
[11] = female, Wistar, rat, plasma, po, 150 mg/kg, female wistar rats, fasting, oral 150 mg/kg, Mean ± SD

With `Cc1cc(C)cc(OCC2CNC(=O)O2)c1` (single isomer, unassigned) [Form B, 5-(3′,5′-dimethylphenoxy)methyl-2-oxazolidinone] the “AUCt Mean” value [1] was 333.329, the “Tmax Mean” value (Mean of N=6 rats, female wistar rat, oral 150 mg/kg, 150 mg/kg, in h) was 2.083 and the “Cmax Mean” value (Mean of N=6 rats, female wistar rat, oral 150 mg/kg, 150 mg/kg, in µg/mL) was 40.735. It also gave an AUCinf [2] of 389.07 ± 200.6 µg·h/mL, an AUClast [2] of 333.32 ± 159.9 µg·h/mL and an AUCinf [3] of 389.07±200.6 hrμg/ml. It also gave an AUClast [3] of 333.32±159.9 hrμg/ml, a Clobs [3] of 472.72 ± 214.7 mL/h/kg and a Cmax [3] of 40730 ± 2800 ng/mL. For the same compound, the “Half Life” value [3] was 4.49 ± 1.7 h, the MRTlast [3] was 5.50 ± 1.8 h and the Tmax [3] was 2.08 ± 1.4 h. For the same compound, the Clobs [4] was 472.72 ± 214.7 mL/h/kg, the Lambda z [4] was 0.172 ± 0.05 h⁻¹ and the Vzobs [4] was 2654.18 ± 422.2 mL/kg. For the same compound, the “bioavailability, based on the observed Cmax values” [5] was “bioavailable”, the MRTlast (female wistar rats, oral 150 mg/kg, plasma, mean ± SD, unit not given, 150 mg/kg, in h) was 5.50±1.8 and the AUC (female, Wistar, rat, plasma, po, 150 mg/kg, Mean of N=6 rats, female wistar rat, oral 150 mg/kg, read-out: AUCin Mean) was 389 µg·h/mL. For the same compound, the Cmax (female, Wistar, rat, plasma, po, 150 mg/kg, female wistar rats, oral 150 mg/kg, plasma, mean ± SD, no unit printed for this value, read-out: mean Cmax) was 40700 ± 2800 ng/mL, the AUCin [6] was 196.86 and 360.78 and 551.70 and 707.50 and 229.04 and 288.56 and the AUCt [6] was 188.83 and 306.89 and 384.99 and 626.04 and 207.73 and 285.51. For the same compound, the Tmax [7] was 1.00 and 4.00 and 1.50 and the Cmax [8] was 38.75 and 43.65 and 43.04 and 43.27 and 38.16 and 37.54.
In the case of `Cc1cc(C)cc(OCC2CNC(=O)O2)c1` (single isomer, unassigned) [Form A, 5-(3′,5′-dimethylphenoxy)methyl-2-oxazolidinone], the “AUCin A/B %” value [9] is reported as 328.5% and 110.5% and 69.0% and 37.7% and 291.3% and 120.9%, the “AUCt A/B %” value [9] is reported as 196.7% and 84.4% and 73.7% and 40.4% and 255.3% and 88.1% and the “Cmax A/B %” value [9] is reported as 111.2% and 77.4% and 89.4% and 90.9% and 103.7% and 85.0%. The “AUCin Mean” value [1] was 451.461, the Clobs [3] was 369.84 ± 127.3 mL/h/kg and the Clobs (female wistar rats, fasting, oral 150 mg/kg, plasma, Mean ± SD, listed as Form-A, 150 mg/kg) was 369.84 ± 127.3 mL/h/kg. For the same compound, the Clobs [10] was 369.84 ± 127.3 mL/h/kg, the Lambda z [10] was 0.119 ± 0.07 h⁻¹ and the Vzobs [10] was 3466.02 ± 978.8 mL/kg. For the same compound, the “bioavailability, based on the observed Cmax values” [5] was “bioavailable”, the AUC(0-t) (female, Wistar, rat, plasma, po, 150 mg/kg, Mean of N=6 rats, female wistar rat, oral 150 mg/kg, read-out: AUCt Mean) was 325 µg·h/mL and the Cmax (female, Wistar, rat, plasma, po, 150 mg/kg, Mean of N=6 rats, female wistar rat, oral 150 mg/kg, read-out: Cmax Mean) was 37700 ng/mL. The Tmax (female, Wistar, rat, plasma, po, 150 mg/kg, Mean of N=6 rats, female wistar rat, oral 150 mg/kg, read-out: Tmax Mean) was 1.5 h, the AUC(0-inf) [11] was 451 ± 166 µg·h/mL and the MRT last [11] was 5.49 ± 1.8 h. It also gave a half-life [11] of 435 ± 174 min, an AUC(0-inf) (female, Wistar, rat, plasma, po, 150 mg/kg, female wistar rats, fasting, oral 150 mg/kg, Mean ± SD (second Table IV)) of 451 ± 166 µg·h/mL and an AUC(0-t) (female, Wistar, rat, plasma, po, 150 mg/kg, female wistar rats, fasting, oral 150 mg/kg, plasma, Mean ± SD (second Table IV), read-out: AUClast) of 325 ± 110 µg·h/mL. For the same compound, the AUC(0-t) (female, Wistar, rat, plasma, po, 150 mg/kg, female wistar rats, fasting, oral 150 mg/kg, plasma, Mean ± SD, read-out: AUClast) was 325 ± 110 µg·h/mL, the Cmax (female, Wistar, rat, plasma, po, 150 mg/kg, female wistar rats, fasting, oral 150 mg/kg, plasma, Mean ± SD, read-out: Cmax) was 37700 ± 4100 ng/mL and the Tmax (female, Wistar, rat, plasma, po, 150 mg/kg, female wistar rats, fasting, oral 150 mg/kg, plasma, Mean ± SD, read-out: Tmax) was 1.5 ± 0.3 h. For the same compound, the MRT last (female, Wistar, rat, plasma, po, 150 mg/kg, female wistar rats, oral 150 mg/kg, mean ± SD, unit inferred) was 5.49 ± 1.8 h, the Cmax (female, Wistar, rat, plasma, po, 150 mg/kg, individual rats 1-6, female wistar rat, oral 150 mg/kg, read-out: Cmax) was 43100 ng/mL and the AUCin [6] was 646.72 and 398.52 and 380.50 and 267.03 and 667.12 and 348.88. The AUCt [6] was 371.39 and 259.03 and 283.70 and 252.67 and 530.31 and 251.62, the Tmax [7] was 2.00 and 1.00 and the Cmax [8] was 33.77 and 38.46 and 39.32 and 39.57 and 31.90.
